Assay results: article PMC8807399, “Synthesis, Characterization, and in vivo Evaluation of a Novel Potent Autotaxin-Inhibitor” (Frontiers in Pharmacology, 2022)

Assays:
[1] = Lipophilicity (LogD, octanol/buffer); format: physicochemical; details: 1-octanol / 25 mM phosphate buffer; pH 7.4, octanol/25 mM phosphate buffer
Description: The experiment started with the accurate coating of the hydrophobic layer (0.45 µm PVDF membranes), which was fixed on the bottom of each DIFI©-tube (Weidmann Medical Technology AG, Rapperswil, Switzerland). The coated membranes were then connected to a 96-well plate which has been prefilled with exactly 150 µl of the selected aqueous buffer solution (25 mM phosphate buffer, pH 7.4). The buffer solution contains already the compound of interest with a maximum starting concentration of 85 µM. To expand the measurement range down to logD = −0.5 and up to logD = +4, it is necessary to carry out the procedure at two different octanol/water ratios: One with an excess of octanol for hydrophilic compounds (logD < 1) and one with a low volume of octanol for the lipophilic compounds (logD > 1). Therefore, parts of the DIFI©-tubes were filled with 15 µl 1-octanol and another part with 1 µl 1-octanol. The resulting sandwich guarantees that the membrane was completely dipped in the buffer solution. The plate was then sealed and shaken for 12 h at room temperature (23°C). During this time, the substance is distributed between the layer, the octanol, and the buffer solution. After having reached a distribution equilibrium, the DIFI©-tubes were easily disassembled from the top of the 96-well plate, so that the remaining sample concentration in the aqueous phase could be analyzed by LC/MS.

Single dose PK in rats = format: in vivo; details: rat
Description: Exposures in animals treated with ATX-inhibitors were determined from K2EDTA treated plasma by LC-MS/MS at different time points. 25 µL of plasma was used for a single concentration determination. Concentration/time profiles were analyzed with MS Excel (Microsoft Corporation, Redmond, WA, United States).
For PK experiments for 7, 13, 14, and 15, respectively, animals were treated either iv or po and exposures were determined at different time points after compound administration. Suitable formulations for 13 were, for example, NMP:Tris buffer pH 8.5 (30%/70%) for iv administration with a nominal drug concentration of 1 mg/ml (dose 2 mg/kg) and a suspension in NMP:gelatine/NaCl (10%/90%) for po administration with a nominal drug concentration of 2.5 mg/ml (dose 10 mg/kg). PK parameters in Table 2 were estimated from the concentration time profiles using Phoenix WinNonlin software (Certara, Princeton, NJ, United States).

5HT1A = molecular target: T1, 5HT1A (Homo sapiens, UniProt P08908); experiment: Off-target screen 5HT1A; format: binding; details: 10 µM; single point, duplicates
T1 construct: purchased Eurofins CEREP SA

Carbonic anhdrase II = molecular target: T2, Carbonic anhdrase II (Homo sapiens, UniProt P00918); experiment: Off-target screen Carbonic anhydrase II; format: biochemical; details: 10 µM; single point, duplicates
T2 construct: purchased Eurofins CEREP SA

Estrogen receptor alpha = molecular target: T3, Estrogen receptor alpha (Homo sapiens, UniProt P03372); experiment: Off-target screen Estrogen receptor alpha; format: binding; details: 10 µM; single point, duplicates
T3 construct: purchased Eurofins CEREP SA

Histamine H2 receptor = molecular target: T4, Histamine H2 receptor (Homo sapiens, UniProt P25021); experiment: Off-target screen Histamine H2; format: binding; details: 10 µM; single point, duplicates
T4 construct: purchased Eurofins CEREP SA

LPA1 receptor = molecular target: T5, LPA1 receptor (Homo sapiens, UniProt Q92633); experiment: Off-target screen LPA1 receptor; details: 10 µM; single point, duplicates
T5 construct: purchased Eurofins CEREP SA

LPA2 receptor = molecular target: T6, LPA2 receptor (Homo sapiens, UniProt Q9HBW0); experiment: Off-target screen LPA2 receptor, agonist mode; format: cell-based; details: 10 µM, single point, duplicates
T6 construct: purchased Eurofins CEREP SA

MMP-3 = molecular target: T7, MMP-3 (Homo sapiens, UniProt P08254); experiment: Off-target screen MMP-3; format: biochemical; details: 10 µM; single point, duplicates
T7 construct: purchased Eurofins CEREP SA

[2] = molecular target: T8, Neprilysin (neutral endopeptidase) (Homo sapiens, UniProt P08473); experiment: Off-target screen Neprilysin; format: biochemical; details: 10 µM; single point, duplicates
T8 construct: purchased Eurofins CEREP SA

PDE-5 = molecular target: T9, PDE-5 (Homo sapiens, UniProt O76074); experiment: Off-target screen PDE-5; format: biochemical; details: 10 µM; single point, duplicates
T9 construct: purchased Eurofins CEREP SA

Prostaglandin F receptor = molecular target: T10, Prostaglandin F receptor (Homo sapiens, UniProt P43088); experiment: Off-target screen Prostaglandin F receptor; format: binding; details: 10 µM; single point, duplicates
T10 construct: purchased Eurofins CEREP SA

Alpha1A-adrenoreceptor = molecular target: T11, Alpha1A-adrenoreceptor (Homo sapiens, UniProt P35348); experiment: Off-target screen Alpha1A-adrenoreceptor; format: binding; details: 10 µM; single point, duplicates
T11 construct: purchased Eurofins CEREP SA

Sigma = experiment: Off-target screen Sigma; details: 10 µM; single point, duplicates
HIV-1 protease = experiment: Off-target screen HIV-1 protease; details: 10 µM; single point, duplicates
[3] = tested on: GABA-A (benzodiazepine site); experiment: Off-target screen GABA-A (benzodiazepine site); details: 10 µM; single point, duplicates
[4] = plasma, po, 20 mg/kg/day, food admix (FA), 20 mg/kg per day

T8 sequence (P08473 whole entry): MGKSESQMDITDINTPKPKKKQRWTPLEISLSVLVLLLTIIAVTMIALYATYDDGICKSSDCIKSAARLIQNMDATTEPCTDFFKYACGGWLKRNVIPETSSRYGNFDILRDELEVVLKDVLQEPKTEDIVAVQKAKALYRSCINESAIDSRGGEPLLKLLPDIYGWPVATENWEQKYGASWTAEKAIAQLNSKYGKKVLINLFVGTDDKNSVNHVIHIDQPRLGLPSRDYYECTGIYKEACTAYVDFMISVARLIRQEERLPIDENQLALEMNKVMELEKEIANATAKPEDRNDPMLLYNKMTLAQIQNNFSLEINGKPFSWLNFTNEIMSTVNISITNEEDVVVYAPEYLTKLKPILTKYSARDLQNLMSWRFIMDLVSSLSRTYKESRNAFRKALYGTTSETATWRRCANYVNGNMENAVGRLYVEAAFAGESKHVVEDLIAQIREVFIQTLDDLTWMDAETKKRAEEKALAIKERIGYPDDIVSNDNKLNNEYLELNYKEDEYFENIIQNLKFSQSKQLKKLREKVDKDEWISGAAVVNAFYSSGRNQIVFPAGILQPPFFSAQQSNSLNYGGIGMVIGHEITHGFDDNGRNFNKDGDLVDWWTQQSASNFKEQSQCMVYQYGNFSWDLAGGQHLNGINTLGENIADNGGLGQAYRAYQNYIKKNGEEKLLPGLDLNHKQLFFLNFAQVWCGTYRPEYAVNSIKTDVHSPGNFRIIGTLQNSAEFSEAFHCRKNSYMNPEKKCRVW
T11 sequence (P35348 whole entry): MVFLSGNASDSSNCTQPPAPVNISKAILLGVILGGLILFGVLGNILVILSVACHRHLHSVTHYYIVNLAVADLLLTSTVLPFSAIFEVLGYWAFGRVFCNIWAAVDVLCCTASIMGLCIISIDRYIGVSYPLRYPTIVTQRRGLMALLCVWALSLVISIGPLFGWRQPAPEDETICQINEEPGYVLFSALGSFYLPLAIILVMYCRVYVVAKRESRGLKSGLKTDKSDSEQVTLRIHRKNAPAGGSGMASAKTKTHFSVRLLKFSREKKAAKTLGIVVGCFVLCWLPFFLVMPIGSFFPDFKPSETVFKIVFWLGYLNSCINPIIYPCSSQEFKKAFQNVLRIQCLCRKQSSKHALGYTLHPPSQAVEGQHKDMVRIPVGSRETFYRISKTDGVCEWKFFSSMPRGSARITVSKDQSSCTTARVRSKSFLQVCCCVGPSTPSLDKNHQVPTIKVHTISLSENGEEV
T1 sequence (P08908 whole entry): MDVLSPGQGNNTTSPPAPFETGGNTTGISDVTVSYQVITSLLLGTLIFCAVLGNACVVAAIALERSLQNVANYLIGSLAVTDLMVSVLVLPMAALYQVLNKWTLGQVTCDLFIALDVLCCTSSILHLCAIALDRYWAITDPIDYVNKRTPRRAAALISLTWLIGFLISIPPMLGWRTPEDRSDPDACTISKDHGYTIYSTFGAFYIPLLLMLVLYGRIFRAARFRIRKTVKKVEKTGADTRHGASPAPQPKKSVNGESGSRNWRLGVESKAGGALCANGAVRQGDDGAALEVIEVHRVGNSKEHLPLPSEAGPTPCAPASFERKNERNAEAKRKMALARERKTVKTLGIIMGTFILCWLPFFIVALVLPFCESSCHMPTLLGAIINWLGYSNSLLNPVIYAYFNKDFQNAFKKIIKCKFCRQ
T4 sequence (P25021 whole entry): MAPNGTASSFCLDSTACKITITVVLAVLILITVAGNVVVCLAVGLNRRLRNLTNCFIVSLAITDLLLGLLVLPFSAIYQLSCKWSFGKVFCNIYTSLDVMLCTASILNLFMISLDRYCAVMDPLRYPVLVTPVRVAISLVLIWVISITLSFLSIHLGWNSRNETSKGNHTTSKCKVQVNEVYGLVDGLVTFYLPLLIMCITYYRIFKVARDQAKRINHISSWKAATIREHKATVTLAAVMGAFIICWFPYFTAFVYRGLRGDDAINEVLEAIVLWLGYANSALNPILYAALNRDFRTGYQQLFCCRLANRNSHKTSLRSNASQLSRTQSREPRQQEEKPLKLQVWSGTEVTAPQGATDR
T7 sequence (P08254 100-477): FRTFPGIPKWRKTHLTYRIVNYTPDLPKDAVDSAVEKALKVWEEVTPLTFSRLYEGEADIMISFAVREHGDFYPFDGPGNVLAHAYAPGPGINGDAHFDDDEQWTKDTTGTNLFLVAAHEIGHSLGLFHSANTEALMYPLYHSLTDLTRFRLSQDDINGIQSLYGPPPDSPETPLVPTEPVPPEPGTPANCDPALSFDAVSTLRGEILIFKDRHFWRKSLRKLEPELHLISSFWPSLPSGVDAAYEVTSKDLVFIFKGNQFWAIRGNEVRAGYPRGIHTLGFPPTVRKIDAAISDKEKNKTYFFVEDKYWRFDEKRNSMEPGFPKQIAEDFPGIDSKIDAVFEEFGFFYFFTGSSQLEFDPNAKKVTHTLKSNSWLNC
T6 sequence (Q9HBW0 whole entry): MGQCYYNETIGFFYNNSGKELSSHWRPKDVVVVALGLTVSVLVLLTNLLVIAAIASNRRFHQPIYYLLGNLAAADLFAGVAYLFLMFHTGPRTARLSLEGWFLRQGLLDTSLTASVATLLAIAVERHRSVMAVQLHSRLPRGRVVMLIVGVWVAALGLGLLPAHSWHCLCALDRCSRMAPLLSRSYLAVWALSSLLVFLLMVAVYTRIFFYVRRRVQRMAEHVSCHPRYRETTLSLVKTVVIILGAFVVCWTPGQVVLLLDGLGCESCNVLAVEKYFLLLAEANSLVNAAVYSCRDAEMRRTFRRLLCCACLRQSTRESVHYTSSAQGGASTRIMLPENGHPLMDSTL
T10 sequence (P43088 whole entry): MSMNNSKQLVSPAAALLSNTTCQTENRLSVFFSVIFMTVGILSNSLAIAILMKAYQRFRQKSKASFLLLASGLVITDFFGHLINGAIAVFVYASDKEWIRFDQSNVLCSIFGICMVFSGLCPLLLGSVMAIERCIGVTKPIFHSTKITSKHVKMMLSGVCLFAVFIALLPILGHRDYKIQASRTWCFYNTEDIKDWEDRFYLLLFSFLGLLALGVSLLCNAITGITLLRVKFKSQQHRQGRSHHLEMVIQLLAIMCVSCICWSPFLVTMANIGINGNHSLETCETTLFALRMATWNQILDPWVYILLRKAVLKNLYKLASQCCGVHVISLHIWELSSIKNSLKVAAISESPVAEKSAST
T5 sequence (Q92633 whole entry): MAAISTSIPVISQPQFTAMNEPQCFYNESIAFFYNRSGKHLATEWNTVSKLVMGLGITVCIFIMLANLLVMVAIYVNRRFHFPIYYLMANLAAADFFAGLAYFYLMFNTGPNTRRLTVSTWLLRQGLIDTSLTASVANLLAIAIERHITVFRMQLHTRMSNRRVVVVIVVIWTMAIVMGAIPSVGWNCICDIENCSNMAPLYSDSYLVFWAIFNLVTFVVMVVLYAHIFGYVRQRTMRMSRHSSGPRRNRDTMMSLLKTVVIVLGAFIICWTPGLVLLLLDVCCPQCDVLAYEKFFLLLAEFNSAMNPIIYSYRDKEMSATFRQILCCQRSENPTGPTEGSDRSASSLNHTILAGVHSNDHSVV
T3 sequence (P03372 whole entry): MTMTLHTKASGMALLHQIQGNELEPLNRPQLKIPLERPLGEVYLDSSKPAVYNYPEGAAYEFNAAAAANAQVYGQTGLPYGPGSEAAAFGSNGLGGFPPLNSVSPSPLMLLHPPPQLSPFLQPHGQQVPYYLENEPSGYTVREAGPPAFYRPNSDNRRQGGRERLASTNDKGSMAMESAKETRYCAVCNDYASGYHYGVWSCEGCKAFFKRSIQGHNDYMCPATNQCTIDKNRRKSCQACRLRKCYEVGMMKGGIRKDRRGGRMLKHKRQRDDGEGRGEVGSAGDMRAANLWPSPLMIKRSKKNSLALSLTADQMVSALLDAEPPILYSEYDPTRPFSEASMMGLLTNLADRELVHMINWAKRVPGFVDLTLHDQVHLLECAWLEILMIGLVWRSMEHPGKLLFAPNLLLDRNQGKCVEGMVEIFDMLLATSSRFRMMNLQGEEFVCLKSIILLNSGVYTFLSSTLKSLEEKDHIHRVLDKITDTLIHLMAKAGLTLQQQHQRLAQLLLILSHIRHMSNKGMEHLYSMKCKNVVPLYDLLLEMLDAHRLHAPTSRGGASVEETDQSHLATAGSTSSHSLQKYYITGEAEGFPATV

## O=C(OCc1ccc(OC(F)(F)F)cc1)N1C[C@@H]2CN(C(=O)c3ccc4[nH]nnc4c3)C[C@H]2C1 [Compound 13, (3aS,6aS)-5-(1H-Benzotriazole-5-carbonyl)-hexahydro-pyrrolo[3,4-c]pyrrole-2-carboxylic acid 4-trifluoromethoxy-benzyl ester]
[1]
  logD at 12 h: 3.2
Single dose PK in rats; [4]
  AUC(0-inf): 260 µg·h/mL
  Cmax: 2980 ng/mL
  Tmax: 17 h
  half-life: 13 h
Single dose PK in rats; plasma, iv bolus, 2 mg/kg
  AUC(0-inf): 21 µg·h/mL
  half-life: 2.6 h
Single dose PK in rats; plasma, iv bolus, 2 mg/kg, read-out: CLp
  clearance: 1.6 mL/min/kg
Single dose PK in rats; plasma, iv bolus, 2 mg/kg, read-out: Vdss
  Vd: 0.3 L/kg
Single dose PK in rats; plasma, oral gavage, 10 mg/kg
  AUC(0-inf): 130 µg·h/mL
  Cmax: 17700 ng/mL
  Tmax: 0.75 h
  half-life: 4.6 h
Single dose PK in rats; food admix (FA), 20 mg/kg per day
  Oral F: 80%
Single dose PK in rats; oral gavage, 10 mg/kg
  Oral F: 80%
5HT1A
  5HT1A (h) [% inhib]: -20 % inhib
Carbonic anhdrase II
  Carbonic anhdrase II (h) [% inhib]: -6 % inhib
Estrogen receptor alpha
  Estrogen receptor alpha (h) [% inhib]: -6 % inhib
Histamine H2 receptor
  Histamine H2 receptor (h) [% inhib]: 12 % inhib
LPA1 receptor
  LPA1 receptor (h) [% inhib]: -19 % inhib
LPA2 receptor
  LPA2 receptor (h), agonist mode [% pos ctrl]: 8 % pos ctrl
MMP-3
  MMP-3 (h) [% inhib]: 3 % inhib
[2]
  Neprilysin (neutral endopeptidase) (h) [% inhib]: -29 % inhib
PDE-5
  PDE-5 (h) [% inhib]: 19 % inhib
Prostaglandin F receptor
  Prostaglandin F receptor (h) [% inhib]: 26 % inhib
Alpha1A-adrenoreceptor
  Alpha1A-adrenoreceptor (h) [% inhib]: 6 % inhib
Sigma
  Sigma (h) [% inhib]: 38 % inhib
HIV-1 protease
  HIV-1 protease (h) [% inhib]: 0 % inhib
[3]
  GABA-A (benzodiazepine site) (r) [% inhib]: -26 % inhib
